Values quoted from earlier work, collected in paper PMC12175978, “First-in-Human Serum Stability Studies of [^177Lu]Lu-AMTG: A Step Toward Improved GRPR-Targeted Radiopharmaceutical Therapy” (Journal of Nuclear Medicine, 2025).
Read-outs that look alike come from different tables or passages of the source.

In the case of [^177Lu]Lu-DOTATATE, the “in vivo serum stability in humans (in words)” value (in vivo) is given as “very stable”.

For [^177Lu]Lu-PSMA-617, the “in vivo serum stability in humans (in words)” value (human) is given as “very stable”.
